Series [1] in a line: ASSAY (IV) determination of solubility. The class given is physicochemical. Summed up: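 Polypeptide in water at […] mixed 1:1 with 100 mM buffers of pH 3.0-8.0 (glycylglycine pH 3-5, bistrispropane pH 6-8). Held 18 h at room temperature, then centrifuged; concentration remaining in solution measured by UPLC.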
In series [2] the test system is Sprague Dawley (SD) rats. The series can be described thus: ASSAY (I) efficacy testing on appetite (food intake) using an ad libitum fed rat model. The class given is in vivo. The following applies: rat, 30 nmol/kg. The source says: Sprague Dawley (SD) rats from Taconic Europe, Denmark are used for the experiments. The rats have a body weight 200-250 g at the start of experiment. The rats arrive at least 10-14 days before start of experiment to allow acclimatization to experimental settings. During this period the animals are handled at least 2 times. After arrival rats are housed individually for one week in a reversed light/dark phase (meaning that lights are off during daytime and on during nighttime) for two weeks. Since rats are normally active and eat their major part of their daily food intake during the dark period, rats are dosed in the morning right before lights are turned off. This set-up results in the lowest data variation and highst test sensitivity. The experiment is conducted in the rats' home cages and rats have free access to food and water throughout the acclimatization period and the experiment period. Each dose of derivative is tested in a group of 5-8 rats. A vehicle group of 6-8 rats is included in each set of testing. Rats are dosed once according to body weight with a 0.01-3 mg/kg solution administered intraperitoneally (ip), orally (po) or subcutaneously (sc). The time of dosing is recorded for each group. After dosing, the rats are returned to their home cages, where they then have access to food and water. The food consumption is recorded individually continuously by online registration or manually every hour for 7 hours, and then after 24 h and sometimes 48 h. At the end of the experimental session, the animals are euthanized.
The individual data are recorded in Microsoft excel sheets. Outliers are excluded after applying the Grubbs statistical evaluation test for outliers, and the result is presented graphically using the GraphPad Prism program.

A short description of series [3]: ASSAY (III) ThT fibrillation assay for physical stability. The class given is physicochemical. Summed up: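 Formulations with 1 μM ThT, pH adjusted as required, incubated at 37 °C with 960 rpm orbital shaking; fluorescence (ex 444/em 485 nm) read every 20 min. Fibrillation reported as mean ThT fluorescence ± SD of 4–8 replicates at time points; polypeptide concentration measured by reverse-phase HPLC before and after, post-centrifugation.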

[4] abbreviates: bistrispropane buffer, pH 6.5, read-out: Solubility pH 6.5 Concentration.
The mark [5] stands for this setting: bistrispropane buffer, pH 7.5, read-out: Solubility pH 7.5 Concentration.
[6] abbreviates: bistrispropane buffer, pH 6.0, read-out: Solubility pH 6.0 Concentration.
Where [7] appears, read: bistrispropane buffer, pH 7.0, read-out: Solubility pH 7.0 Concentration.
The mark [8] stands for this setting: bistrispropane buffer, pH 8.0, read-out: Solubility pH 8.0 Concentration.
Setting [9] is: glycylglycine buffer, pH 3.0, read-out: Solubility pH 3.0 Concentration.
The mark [10] stands for this setting: glycylglycine buffer, pH 4.0, read-out: Solubility pH 4.0 Concentration.
Setting [11] is: glycylglycine buffer, pH 5.0, read-out: Solubility pH 5.0 Concentration.

≈ marks a conversion by molar mass, not a printed value. Read-outs that look alike come from different tables or passages of the source. Numbered stars: 1 amine (or outer) side, 2 acyl side, 3 side chain; on linkers, the order of the positions; unused ones are H or OH. Bridge positions count the residues as written; N and C are the ends. Side chains are listed from the residue outwards. Peptide text beside a SMILES is read from it. * marks the point of attachment. C20 diacid = O=C(O)CCCCCCCCCCCCCCCCCCC(=O)*; γGlu = O=C(O)[C@H](CCC(=O)[*:2])N[*:1]; AEEA = NCCOCCOCC(=O)O

As to `CC[C@H](C)[C@H](NC(=O)[C@H](C)NC(=O)CNC(=O)[C@H](Cc1ccccc1)NC(=O)[C@H](CC(N)=O)NC(=O)[C@@H]1CCCN1C(=O)[C@H](CO)NC(=O)[C@H](CO)NC(=O)[C@H](Cc1c[nH]cn1)NC(=O)[C@H](CCCNC(=N)N)NC(=O)[C@H](CC(C)C)NC(=O)[C@H](Cc1ccccc1)NC(=O)[C@H](Cc1c[nH]cn1)NC(=O)[C@H](C)NC(=O)[C@H](CC(C)C)NC(=O)[C@H](CCCNC(=N)N)NC(=O)[C@H](CCC(N)=O)NC(=O)[C@@H](NC(=O)[C@H](C)NC(=O)[C@@H]1CSSC[C@H](NC(=O)[C@@H](N)CCCCNC(=O)COCCOCCNC(=O)CC[C@H](NC(=O)CCCCCCCCCCCCCCCCCCC(=O)O)C(=O)O)C(=O)N[C@@H](CC(N)=O)C(=O)N[C@@H]([C@@H](C)O)C(=O)N[C@@H](C)C(=O)N[C@@H]([C@@H](C)O)C(=O)N1)[C@@H](C)O)C(=O)N1CCC[C@H]1C(=O)N[C@@H](CO)C(=O)N[C@@H](CO)C(=O)N[C@H](C(=O)N[C@@H](CC(N)=O)C(=O)N[C@H](C(=O)NCC(=O)N[C@@H](CCCNC(=N)N)C(=O)N[C@@H](CC(N)=O)C(=O)N[C@H](C(=O)N[C@@H](Cc1ccc(O)cc1)C(N)=O)[C@@H](C)O)C(C)C)[C@@H](C)O` [Example 84] (H-K([AEEA-γGlu-C20 diacid])CNTATCATQRLAHFLRHSSPNFGAIPSSTNVGRNTY-NH2; disulfide 2-7 (inferred); N-terminus assumed), the solubility at 18 h in series [1] (setting [4]), in series [1] (setting [5]), in series [1] (setting [6]), in series [1] (setting [7]), in series [1] (setting [8]) and in series [1] (setting [9]) was at least 200 µM each time. Moreover, the solubility at 18 h in series [1] (setting [10]) and in series [1] (setting [11]) was at least 200 µM each time. The “Food intake reduction 0-24 h 30 nmol/kg (%)” value in series [2] (0-24 h) is reported as 10%. For the same molecule, the “Food intake reduction 24-48 h 30 nmol/kg (%)” value in series [2] (24-48 h) is on record as 0%. The “ThT pH 4.0 lag time (h)” value in series [3] was 45 h.
Turning to `CC[C@H](C)[C@H](NC(=O)[C@H](C)NC(=O)CNC(=O)[C@H](Cc1ccccc1)NC(=O)[C@H](CC(N)=O)NC(=O)[C@@H]1CCCN1C(=O)[C@H](CO)NC(=O)[C@H](CO)NC(=O)[C@H](Cc1c[nH]cn1)NC(=O)[C@H](CCCNC(=N)N)NC(=O)[C@H](CC(C)C)NC(=O)[C@H](Cc1ccccc1)NC(=O)[C@H](CCC(=O)O)NC(=O)[C@H](C)NC(=O)[C@H](CC(C)C)NC(=O)[C@H](CCCNC(=N)N)NC(=O)[C@H](CCC(N)=O)NC(=O)[C@@H](NC(=O)[C@H](C)NC(=O)[C@@H]1CSSC[C@H](NC(=O)[C@H](CCCCN)NC(=O)CC[C@H](NC(=O)CCCCCCCCCCCCCCCCCCC(=O)O)C(=O)O)C(=O)N[C@@H](CC(N)=O)C(=O)N[C@@H]([C@@H](C)O)C(=O)N[C@@H](C)C(=O)N[C@@H]([C@@H](C)O)C(=O)N1)[C@@H](C)O)C(=O)N1CCC[C@H]1C(=O)N[C@@H](CO)C(=O)N[C@@H](CO)C(=O)N[C@H](C(=O)N[C@@H](CC(N)=O)C(=O)N[C@H](C(=O)NCC(=O)N[C@@H](Cc1c[nH]cn1)C(=O)N[C@@H](CC(N)=O)C(=O)N[C@H](C(=O)N[C@@H](Cc1ccc(O)cc1)C(N)=O)[C@@H](C)O)C(C)C)[C@@H](C)O` [Example 17] ({C20 diacid-γGlu}-KCNTATCATQRLAEFLRHSSPNFGAIPSSTNVGHNTY-NH2; disulfide 2-7 (inferred)), the solubility at 18 h in series [1] (setting [4]) is at least 200 µM; in series [1] (setting [5]), 159 µM (≈ 707 µg/mL); in series [1] (setting [6]), at least 200 µM; in series [1] (setting [7]), at least 200 µM; in series [1] (setting [8]), 154 µM (≈ 685 µg/mL); in series [1] (setting [9]) it was at least 200 µM. The solubility at 18 h in series [1] (setting [10]) and in series [1] (setting [11]) was at least 200 µM throughout. Also, in series [3], the “ThT pH 4.0 lag time (h)” value is 45 h.
Consider `CC[C@H](C)[C@H](NC(=O)[C@H](C)NC(=O)CNC(=O)[C@H](Cc1ccccc1)NC(=O)[C@H](CC(N)=O)NC(=O)[C@@H]1CCCN1C(=O)[C@H](CO)NC(=O)[C@H](CO)NC(=O)[C@H](Cc1c[nH]cn1)NC(=O)[C@H](CCCNC(=N)N)NC(=O)[C@H](CC(C)C)NC(=O)[C@H](Cc1ccccc1)NC(=O)[C@H](CC(N)=O)NC(=O)[C@H](C)NC(=O)[C@H](CC(C)C)NC(=O)[C@H](CCCNC(=N)N)NC(=O)[C@H](CCC(N)=O)NC(=O)[C@@H](NC(=O)[C@H](C)NC(=O)[C@@H]1CSSC[C@H](NC(=O)[C@@H](N)CCCCNC(=O)COCCOCCNC(=O)COCCOCCNC(=O)CC[C@H](NC(=O)CCCCCCCCCCCCCCCCCCC(=O)O)C(=O)O)C(=O)N[C@@H](CC(N)=O)C(=O)N[C@@H]([C@@H](C)O)C(=O)N[C@@H](C)C(=O)N[C@@H]([C@@H](C)O)C(=O)N1)[C@@H](C)O)C(=O)N1CCC[C@H]1C(=O)N[C@@H](CO)C(=O)N[C@@H](CO)C(=O)N[C@H](C(=O)N[C@@H](CC(N)=O)C(=O)N[C@H](C(=O)NCC(=O)N[C@@H](CO)C(=O)N[C@@H](CCC(=O)O)C(=O)N[C@H](C(=O)N[C@@H](Cc1ccc(O)cc1)C(N)=O)[C@@H](C)O)C(C)C)[C@@H](C)O` [Example 25], for which the solubility at 18 h in series [1] (setting [4]), in series [1] (setting [5]), in series [1] (setting [6]), in series [1] (setting [7]), in series [1] (setting [8]) and in series [1] (setting [9]) was at least 200 µM in each case. The solubility at 18 h in series [1] (setting [10]) and in series [1] (setting [11]) was at least 200 µM each time. Besides, the “ThT pH 4.0 lag time (h)” value in series [3] turned out to be 2 h.
Regarding `CC[C@H](C)[C@H](NC(=O)[C@H](C)NC(=O)CNC(=O)[C@H](Cc1ccccc1)NC(=O)[C@H](CC(N)=O)NC(=O)[C@@H]1CCCN1C(=O)[C@H](CO)NC(=O)[C@H](CO)NC(=O)[C@H](Cc1c[nH]cn1)NC(=O)[C@H](CCCNC(=N)N)NC(=O)[C@H](CC(C)C)NC(=O)[C@H](Cc1ccccc1)NC(=O)[C@H](C)NC(=O)[C@H](C)NC(=O)[C@H](CC(C)C)NC(=O)[C@H](CCCNC(=N)N)NC(=O)[C@H](CCC(N)=O)NC(=O)[C@@H](NC(=O)[C@H](C)NC(=O)[C@@H]1CSSC[C@H](NC(=O)[C@@H](N)CCCCNC(=O)CC[C@H](NC(=O)CCCCCCCCCCCCCCCCCCC(=O)O)C(=O)O)C(=O)N[C@@H](CC(N)=O)C(=O)N[C@@H]([C@@H](C)O)C(=O)N[C@@H](C)C(=O)N[C@@H]([C@@H](C)O)C(=O)N1)[C@@H](C)O)C(=O)N1CCC[C@H]1C(=O)N[C@@H](CO)C(=O)N[C@@H](CO)C(=O)N[C@H](C(=O)N[C@@H](CC(N)=O)C(=O)N[C@H](C(=O)NCC(=O)N1CCC[C@H]1C(=O)N[C@@H](CC(N)=O)C(=O)N[C@H](C(=O)N[C@@H](Cc1ccc(O)cc1)C(N)=O)[C@@H](C)O)C(C)C)[C@@H](C)O` [Example 94] (H-K([γGlu-C20 diacid])CNTATCATQRLAAFLRHSSPNFGAIPSSTNVGPNTY-NH2; disulfide 2-7 (inferred)), the solubility at 18 h in series [1] (setting [4]), in series [1] (setting [5]), in series [1] (setting [6]), in series [1] (setting [7]), in series [1] (setting [8]) and in series [1] (setting [9]) was at least 200 µM each time. For the same molecule, the solubility at 18 h in series [1] (setting [10]) and in series [1] (setting [11]) was at least 200 µM throughout. Moreover, the “ThT pH 4.0 lag time (h)” value in series [3] stood at 10 h.
